The values below come from patent publication US10947216B2, “Amide compounds and method for making and using” (Rigel Pharmaceuticals, Inc., priority 2016, dated 2021).

For orientation: EC50 means the concentration giving half of the maximal effect.

One test deals with IL-23 (p19/p40). Put plainly: IL23-p19 ELISA, dendritic cells (DC differentiated from human PBMC, IFNγ primed), LPS stimulated. Format: cell-based. To be noted: Dendritic cell, human PBMC-derived dendritic cells, 1 h compound pre-incubation, LPS 1 μg/ml 18 hours, 10 pt. Put shortly:
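PBMC-derived DCs (GM-CSF 100 ng/ml + IL-4 20 ng/ml, 7 days) primed 24 h with IFNγ 50 ng/ml, 50K cells/well; compound pre-incubated 1 h at 37° C, then LPS, 18 h. Supernatant IL-23 by p19-capture/p40-detection chemiluminescent ELISA; cytotoxicity by Cell Titer Glo.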
On the technique in general: ELISA stands for enzyme-linked immunosorbent assay.

The next test relates to IL-23p19. Nature of the test: LPS Induced IL23p19 in THP-1 Cells (with IFNγ Primed) Assay. Type of test: cell-based, human. Conditions: Homo sapiens, THP-1, THP-1 cells, IFNγ (50 ng/mL) primed, 1 hour compound pre-incubation, LPS 1 ug/mL 18 hours, 10 pt; read-out: IL23-p19 ELISA, THP1-IFNy, LPS, 10 pt EC50. Put shortly:
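THP-1 cells (50K/well) primed ~18 h with IFNγ (50 ng/mL) in RPMI/10% FBS, then incubated with compound in duplicate for 18 h at 37° C. Supernatant IL-23p19 measured by chemiluminescent sandwich ELISA, giving EC50 by curve fitting. Toxicity assessed in parallel on the remaining cells by Cell Titer Glo.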

Counter-ions that a name gives are not always drawn.

Turning to `Cn1cc(NC(=O)c2cccc(-c3cc[nH]n3)n2)c(-c2ccc(OCC(C)(C)O)cn2)n1` [Compound I-180, N-(3-(5-(2-hydroxy-2-methylpropoxy)pyridin-2-yl)-1-methyl-1H-pyrazol-4-yl)-6-(1H-pyrazol-3-yl)picolinamide], the half-maximal effective concentration (EC50) turned out to be 1190 nM in the test on IL-23 (p19/p40) and 340 nM with IL-23p19.
The corresponding values for `Cn1cc(NC(=O)c2cccc(-c3cn[nH]c3)n2)c(N2CCOCC2)n1` [Compound I-74, N-(1-methyl-3-morpholino-1H-pyrazol-4-yl)-6-(1H-pyrazol-4-yl)picolinamide] are 3820 nM and 18800 nM.
The corresponding values for `COC1CC(n2cc(NC(=O)c3cccc(-c4cncc(C)c4)n3)c(-c3ccccn3)n2)C1` (stereo not drawn) [Compound I-162, N-(1-(3-methoxycyclobutyl)-3-(pyridin-2-yl)-1H-pyrazol-4-yl)-5′-methyl-[2,3′-bipyridine]-6-carboxamide formate] are 167 nM and 499 nM.
The corresponding values for `CCO[C@H]1CC[C@H](n2cc(NC(=O)c3cccc(-c4cn[nH]c4)n3)c(-c3ncc(F)cc3F)n2)CC1` [Compound I-184, N-(3-(3,5-difluoropyridin-2-yl)-1-(trans-4-ethoxycyclohexyl)-1H-pyrazol-4-yl)-6-(1H-pyrazol-4-yl)picolinamide] are 8250 nM and 328 nM.
For `Cn1cc(NC(=O)c2cncc(-c3cc[nH]n3)n2)c(-c2ccccn2)n1` [Compound I-123, N-(1-methyl-3-(pyridin-2-yl)-1H-pyrazol-4-yl)-6-(1H-pyrazol-3-yl)pyrazine-2-carboxamide], the EC50 in the test with IL-23 (p19/p40) was 738 nM; with IL-23p19 it was 921 nM.
The corresponding values for `Cc1n[nH]cc1-c1cccc(C(=O)Nc2cn(C)nc2-c2ccccn2)n1` [Compound I-78, 6-(3-methyl-1H-pyrazol-4-yl)-N-(1-methyl-3-(pyridin-2-yl)-1H-pyrazol-4-yl)picolinamide] are 832 nM and 643 nM.
The corresponding values for `CC(C)n1cc(NC(=O)c2cccc(-c3cn[nH]c3)n2)c(-c2ccccn2)n1` [Compound I-80, N-(1-isopropyl-3-(pyridin-2-yl)-1H-pyrazol-4-yl)-6-(1H-pyrazol-4-yl)picolinamide] are 8790 nM and 2390 nM.
Taken in the same sequence, the figures for `Cn1cc(NC(=O)c2cccc(-c3cncc(N4CCCC4)c3)n2)c(-c2ccccn2)n1` [Compound I-36, N-(1-methyl-3-(pyridin-2-yl)-1H-pyrazol-4-yl)-5′-(pyrrolidin-1-yl)-[2,3′-bipyridine]-6-carboxamide] were 784 nM and 4250 nM.
As to `COCCOCCn1cc(NC(=O)c2cccc(Nc3ccc4[nH]ncc4c3)n2)c(-c2ccccn2)n1` [Compound I-154, 6-((1H-indazol-5-yl)amino)-N-(1-(2-(2-methoxyethoxy)ethyl)-3-(pyridin-2-yl)-1H-pyrazol-4-yl)picolinamide formate], the concentration giving a half-maximal response (EC50) in the test with IL-23 (p19/p40) came out at 6510 nM; in the test on IL-23p19, 4920 nM.
Taken in the same sequence, the figures for `COc1ccc(-c2nn(C)cc2NC(=O)c2cccc(-c3cncc(NC(C)C)c3)n2)nc1` [Compound I-71, 5′-(isopropylamino)-N-(3-(5-methoxypyridin-2-yl)-1-methyl-1H-pyrazol-4-yl)-[2,3′-bipyridine]-6-carboxamide] were 415 nM and 300 nM.
Take `Cn1cc(NC(=O)c2cncc(-c3cn[nH]c3)n2)c(-c2ccccn2)n1` [Compound I-122, N-(1-methyl-3-(pyridin-2-yl)-1H-pyrazol-4-yl)-6-(1H-pyrazol-4-yl)pyrazine-2-carboxamide]: the 50% effective concentration (EC50) in the test with IL-23 (p19/p40) came to 3780 nM; in the test with IL-23p19 it was 873 nM.
The corresponding values for `Cc1cncc(-c2cccc(C(=O)Nc3cn(C4COC4)nc3-c3ccccn3)n2)c1` [Compound I-114, 5′-methyl-N-(1-(oxetan-3-yl)-3-(pyridin-2-yl)-1H-pyrazol-4-yl)-[2,3′-bipyridine]-6-carboxamide] are 2330 nM and 1760 nM.
Taken in the same sequence, the figures for `Cn1cc(NC(=O)c2cccc(-c3cncc(N)c3)n2)c(-c2ccccn2)n1` [Compound I-25, 5′-amino-N-(1-methyl-3-(pyridin-2-yl)-1H-pyrazol-4-yl)-[2,3′-bipyridine]-6-carboxamide] were 34.7 nM and 169 nM.
Consider `Cn1cc(NC(=O)c2cccc(-c3cnc4[nH]ccc4c3)n2)c(-c2ccccn2)n1` [Compound I-44, N-(1-methyl-3-(pyridin-2-yl)-1H-pyrazol-4-yl)-6-(1H-pyrrolo[2,3-b]pyridin-5-yl)picolinamide], for which the EC50 in the test with IL-23 (p19/p40) was found to be 1760 nM; in the test on IL-23p19 it was 349 nM.
For the compound `COCCOCCn1cc(NC(=O)c2cccc(-c3ccco3)n2)c(-c2ccccn2)n1` [Compound I-152, 6-(furan-2-yl)-N-(1-(2-(2-methoxyethoxy)ethyl)-3-(pyridin-2-yl)-1H-pyrazol-4-yl)picolinamide 2,2,2-trifluoroacetate], the concentration giving a half-maximal response (EC50) with IL-23 (p19/p40) is 14200 nM; in the test on IL-23p19, 12400 nM.
